ChEMBL document CHEMBL5726104, “4,6-disubstituted aminopyrimidine derivatives have anti-HIV activity” (2017)

target: Cyclin-dependent kinase 9 (Homo sapiens, UniProt P50750); experiment: Fluorescent Polarization Assay: The activity of the compounds described in the present invention can be determined by measuring the phosphorylation of a fluorescently-labeled peptide by human CDK9/CyclinT kinase complex by fluorescent polarization using a commercially available IMAP Screening Express Assay Kit (Molecular devices).Test compounds were diluted in 100% DMSO to 5 mM stock concentration, then further dilutions were made in H2O or 100% DMSO to desirable concentrations. Each reaction consisted of 5 nM enzyme: CDK9/CyclinT (Proqinase cat#0371-0345-1), 400 nM TAMRA-Rbtide (synthetic 15-mer peptide derived from human retinoblastoma tumor suppressor protein labeled with TAMRA dye, Genecust Europe), 12 μM ATP (=Kmapp, Sigma-Aldrich) and kinase buffer: 20 mM MOPS pH 7 (Sigma-Aldrich), 1 mM DTT (Sigma-Aldrich), 10 mM MgCl2 (Sigma-Aldrich), 0.01% Tween 20 (Sigma-Aldrich).For each reaction, 4 or 6 μl containing TAMRA-Rbtide, ATP and kianse buffer were combined with 2 μl diluted compound in H2O or 0.028 μl compound in 100% DMSO. The kinase reaction was started by the addition of 2 μl diluted enzyme.
Sequence (P50750 whole entry): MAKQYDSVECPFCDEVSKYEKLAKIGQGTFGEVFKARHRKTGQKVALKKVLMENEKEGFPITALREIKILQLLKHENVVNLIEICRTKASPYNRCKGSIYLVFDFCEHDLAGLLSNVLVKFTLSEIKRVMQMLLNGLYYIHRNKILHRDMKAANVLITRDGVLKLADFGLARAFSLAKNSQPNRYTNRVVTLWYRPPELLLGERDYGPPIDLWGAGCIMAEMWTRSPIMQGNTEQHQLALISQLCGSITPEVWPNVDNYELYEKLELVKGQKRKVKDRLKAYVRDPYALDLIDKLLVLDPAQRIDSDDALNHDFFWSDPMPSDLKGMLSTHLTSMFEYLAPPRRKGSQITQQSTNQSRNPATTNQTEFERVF

SMILES	IC50 [µM]
COc1ccccc1-c1cc(Nc2ccc(N3CCN(C)CC3)c(CO)c2)ncn1	< 0.1
COc1ccc(Nc2cc(-c3ccccc3OC)ncn2)cc1NS(C)(=O)=O	< 0.1
COc1cccc(-c2cc(Nc3ccc(OC)c([N+](=O)[O-])c3)ncn2)c1	> 10
COc1ccc(Nc2cc(-c3ccccc3OCc3ccccc3)ncn2)cc1[N+](=O)[O-]	< 10
